In patent publication US4515891A, “Process for the production of disaccharide-tripeptide and disaccharide-tetrapeptide” (priority 1982, dated 1985):

Legend:
[1] = system: Pseudomonas aeruginosa No. 12; assay: Enhancement of nonspecific resistance to bacterial infections; type: in vivo, Std-ddY strain mice; conditions: survivors 7 days after infection, mice
Experimental: Male Std-ddY strain mice weighing about 23 g were used. Test compounds were dissolved in physiological saline and intravenously administered to the animals 72, 48 and 24 hours before the intraperitoneal infection with Pseudomonas aeruginosa No. 12 (inoculum size: 2×10^6 cells/mouse). The number of survivors were recorded 7 days after the infection.

[2] = system: delayed-type hypersensitivity to ovalbumin; assay: Immunostimulant (immunoadjuvant) activity: corneal response; type: in vivo, Hartley strain guinea pigs; conditions: grade 0 to 3.0; guinea pigs sensitized with 1 mg ovalbumin + 100 μg test compound in water-in-oil emulsion; intracorneal ovalbumin 2 weeks after sensitization, read after 48 hours
Experimental: (§1) The animals sensitized were prepared as follows. Groups of 5 female Hartley strain guinea pigs, weighing 200 to 300 g, were injected in the left hind food-pad with 0.2 ml of a water-in-oil emulsion containing 1 mg of crystalline ovalbumin as antigen and 100 μg of test compound. The water-in-oil emulsion consisted of Drakeol 6VR (Pennsylvania Refining Co., U.S.A.), Arlacel A (Atlas Chemical Industries Inc., U.S.A.) and 1/75M phosphate-buffered physiological saline (pH 7.0) in a ratio of 4:1:5 by volume. Control guinea pigs were injected with a water-in-oil emulsion of similar composition containing the antigen but not test compound (Freund's incomplete adjuvant).
To test for the induction of delayed-type hypersensitivity to ovalbumin, that is, the enhancement of cell-mediated immunity, 2 weeks after the sensitization the guinea pigs were given an intracorneal injection of ovalbumin solution (20 mg/ml saline) to make a transient disc of opacity of approximately 5 mm in diameter. The eyes were examined after 48 hours and the extent and degree of corneal opacity were recorded. The reactions were graded from 3.0, for a strong reaction where the whole cornea was thickened, opaque and grayish-white, to 1.0, where slight opacity was observed. When no visible difference from the uninjected eye was detected, the reaction was graded as 0.

[3] = system: delayed-type hypersensitivity to ovalbumin; assay: Immunostimulant (immunoadjuvant) activity: skin reaction; type: in vivo, Hartley strain guinea pigs; conditions: extent of induration; guinea pigs sensitized with 1 mg ovalbumin + 100 μg test compound; intradermal ovalbumin 3 weeks after sensitization, measured after 48 hours
Experimental: as §1
To test for the induction of delayed-type hypersensitivity to ovalbumin, 3 weeks after the sensitization the guinea pigs were given an intradermal injection of ovalbumin solution (0.1 mg/0.1 ml saline) at one hind foot-pad shaved with a clipper. The size of induration was measured after 48 hours. The extent of induration was calculated by the formula as described in Biken Journal, 20, pages 95-103 (1977).

[4] = Solubility (physicochemical properties)
antiovalbumin antibody = assay: Immunostimulant (immunoadjuvant) activity: production of humoral antibody; type: in vivo, Hartley strain guinea pigs; conditions: guinea pigs bled 4 weeks after sensitization with 1 mg ovalbumin + 100 μg test compound
Experimental: as §1
To test for the enhancement of production of humoral antibody, 4 weeks after the sensitization the guinea pigs were bled by cardiac puncture. The levels of antiovalbumin antibody nitrogen were measured quantitatively using a spectrophotometric technique.

[5] = dose 0.0125 mg/kg i.v. 72, 48 and 24 hours before i.p. infection
[6] = dose 0.05 mg/kg i.v. 72, 48 and 24 hours before i.p. infection
[7] = dose 0.2 mg/kg i.v. 72, 48 and 24 hours before i.p. infection
[8] = dose 0.8 mg/kg i.v. 72, 48 and 24 hours before i.p. infection
[9] = dose 3.1 mg/kg i.v. 72, 48 and 24 hours before i.p. infection
[10] = dose 12.5 mg/kg i.v. 72, 48 and 24 hours before i.p. infection

Molecule | Number of survivors/total number of test animals ([1]; dose 0.0031 mg/kg i.v. 72, 48 and 24 hours before i.p. infection) | Number of survivors/total number of test animals [1, 5] | Number of survivors/total number of test animals [1, 6] | Number of survivors/total number of test animals [1, 7] | Number of survivors/total number of test animals [1, 8] | Number of survivors/total number of test animals [1, 9] | Number of survivors/total number of test animals [1, 10] | Corneal response [2] | Skin reaction [3] | Solubility ([4]; in diethyl ether) | Solubility ([4]; in water, 50% C1-3 alcohol) | Antibody nitrogen (antiovalbumin antibody) [µg/mL]
CC(=O)N[C@H]1[C@H](O[C@H]2[C@H](O[C@H](C)C(=O)N[C@@H](C)C(=O)N[C@H](CCC(=O)N[C@@H](CCC[C@@H](N)C(N)=O)C(=O)O)C(N)=O)[C@@H](NC(C)=O)C(O)O[C@@H]2CO)O[C@H](CO)[C@@H](O)[C@@H]1O (stereo partly drawn) [GMP3 -A, β-N-acetylglucosaminyl-(1→4)-N-acetylmuramyl-L-alanyl-D-isoglu taminyl-(L)-meso-2,6-diaminopimelic acid-(D)-amide] | 7/16 | 9/16 | 9/16 | 8/16 | 10/16 | 14/16 | 16/16 | 2.2 | 2.5 | insoluble | Soluble | 350 ± 50
CC(=O)N[C@H]1[C@H](O[C@H]2[C@H](O[C@H](C)C(=O)N[C@@H](C)C(=O)N[C@H](CCC(=O)N[C@@H](CCC[C@@H](N)C(N)=O)C(=O)N[C@H](C)C(=O)O)C(N)=O)[C@@H](NC(C)=O)C(O)O[C@@H]2CO)O[C@H](CO)[C@@H](O)[C@@H]1O (stereo partly drawn) [GMP4 -A, β-N-acetylglucosaminyl-(1→4)-N-acetylmuramyl-L-alanyl-D-isoglu taminyl-(L)-meso-2,6-diaminopimelic acid-(D)-amide-(L)-D-alanine] | – | 6/16 | 6/16 | 4/16 | 7/16 | 7/16 | 16/16 | 2.0 | 3.7 | insoluble | Soluble | 399 ± 90
β-N-acetylglucosaminyl-(1→4)-N,6-O-diacetylmuramyl-L-alanyl-D- isoglutaminyl-(L)-meso-2,6-diaminopimelic acid-(D)-amide-(L)-D-alanine [GMP4 -B] | – | 4/16 | 4/16 | 6/16 | 9/16 | 10/16 | 16/16 | 2.2 | 3.7 | – | – | 216 ± 57
β-N-acetylglucosaminyl-(1→4)-N,6O-diacetylmuramyl-L-alanyl-D-i soglutaminyl-(L)-meso-2,6-diaminopimelic acid-(D)-amide [GMP3 -B] | – | 5/16 | 7/16 | 9/16 | 10/16 | 12/16 | 16/16 | 2.4 | 3.5 | insoluble | Soluble | 250 ± 40
